One series is filed under the species Homo sapiens. The series is described as follows: (§1) Kinetic data for inhibition of Beta-1,4-GalT by free N-acetyl-glucosamine.
The nature of series [1]: (§2) Kinetic data for inhibition of Beta-1,4-GalT by polymer-supported Nacetylglucosamine. Set-up: species or system Homo sapiens.
The nature of series [2]: as §1. The note with it: human.
Series [3] in a line: as §2. The note with it: human.
Series [4] can be described thus: as §1. Set-up: species or system Homo sapiens.

From ChEMBL document CHEMBL1133961, “Chemo-enzymatic synthesis of the Galili epitope Gal(alpha)(1-->3)Galbeta(1-->4)GlcNAc on a homogeneously soluble PEG polymer by a multi-enzyme system” (Bioorg Med Chem Lett, 2001) come the findings set out here.

Structures are written as SMILES. pKi: −log10 of the molar value.

A word on the Km: it is the concentration of substrate that gives half-maximal velocity. A word on the pKi: it is the negative decadic logarithm of the Ki, by convention in mol/L. A lower pKi goes with a high Ki. `CC(=O)N[C@@H]1[C@@H](O)[C@H](O)[C@@H](CO)O[C@H]1O` [N-ACETYLGLUCOSAMINE]: the figures for the Km (in the series filed under Homo sapiens; in series [3]) were 34.6 mM and 10.5 mM, respectively. Further, the pKi in series [1] is 3.27; in series [4], 1.84. The figures for the Vmax in series [2] and in series [3] were 2.62 U mg-1 and 4.73 U mg-1, respectively.
